Source: patent US20230146923A1, “COMPOSITIONS AND METHODS FOR INHIBITION AND TARGETING OF P97” (California Institute of Technology, priority 2021, published 2023)
Where a SMILES comes first, the peptide text is derived from it. The star is where a group is joined. Cbz = O=C(OCc1ccccc1)*

Assays:
Type in all cases: cell-based
Securin = Securin degradation (CHX chase) in HCT116 cells; conditions: HCT116, 1 μM MG132, 50 μM CHX
Method: The concentration of MG132, CB-5083 and Baf A1 was 1 μM, 2 μM and 10 μM, respectively. […] FIGS. 13D-13E depict the half-life of Securin in HCT116 cells. HCT116 cells were treated with 1 μM of MG132, 2 μM of CB-5083, 1 μM of MG132 plus 2 μM of CB-5083 or DMSO. […] Cells were pretreated with […] for 1 h. […] For FIGS. 13B-13G, D, B, M, C and N represents DMSO, Baf A1, MG132, CB-5083 and NMS-873, respectively. Data are shown as mean±SD. Statistical analysis was performed using one-way ANOVA.

E2F1 = E2F1 levels by qPCR and western blot; conditions: HCT116, 6 h
Method: FIGS. 11A-11B show the effect of p97 inhibitors and MG132 on E2F1 expression in HCT116 cells. […] For both qPCR and western blot assays, HCT116 cells were treated for 6 h with DMSO, 1 μM of MG132 (MG), 2 μM of CB-5083 (CB) or 4 μM of NMS-873 (NMS), n=2, **** indicates p<0.0001, *** indicates p<0.001, * indicates p<0.05 according to unpaired t-test.
To determine if the decreased expression of E2F1 target genes was caused by the downregulation of E2F1 levels due to ER stress, qPCR and western blot were used to evaluate E2F1 levels. […] The transcriptional activity of E2F1 can also be repressed through the formation of a complex with the tumor suppressor protein retinoblastoma (RB1) (FIG. 10B). Hyperphosphorylation of RB1 by cyclin-D-cyclin-dependent kinase 4/6 complex (CCND1-CDK4/6) inactivates RB1 and induces the release of the E2F1 from the complex. The newly released E2F1 leads to transcriptional activation of target genes. […] This downregulation of CCND1 and CDK4 was further confirmed by western blot (FIG. 10D). […] Furthermore, the downregulation of CCND1 occurred after the upregulation of ATF3 (FIG. 10F). ATF3 is a stress-inducible gene, which binds to the cyclin D1 promoter and represses its transcription. Therefore, the upregulation of ATF3 potentially contribute to the downregulation of CCND1.

HCT116 cells = assay: Cell cycle analysis (DNA content); conditions: HCT116, 24 h; 1 μM MG132, 2 μM CB-5083
Method: FIG. 7A depicts cell cycle analysis of HCT116 cells after 24 h of treatments with DMSO, 1 μM of MG132 (MG) or 2 μM of CB-5083. […] Data were from TMT labeling proteomics. M, C and N indicates MG132, CB-5083 and NMS-873 treatment, respectively. […] HCT116 cells were treated for 24 h with DMSO, 1 μM of MG132 (MG), 2 μM of CB-5083 (CB) or 4 μM of NMS-873 (NMS), n=3.

SMILES: CC(C)C[C@@H](C=O)NC(=O)[C@H](CC(C)C)NC(=O)[C@H](CC(C)C)NC(=O)OCc1ccccc1 [MG132] (Cbz-Leu-Leu-Leu-aldehyde)
- Securin protein degradation from the cytosol and nucleus (Securin): blocked
- E2F1 RNA levels (E2F1; qPCR, 1 μM MG132, 2 μM CB-5083, 4 μM NMS-873): strongly downregulated
- Protein level of E2F1 (E2F1; western blot): increased
- Distribution of cells in the G0/G1 phase (HCT116 cells): reduced distribution in the G0/G1 phase
